Results as given in US12590062B2, “PD-1/PD-L1 inhibitors” (Gilead Sciences, Inc., priority 2017, dated 2026).

What was measured:
PD-1/PD-L1 interaction = molecular target: T1, PD-1/PD-L1 interaction (Homo sapiens, UniProt Q9NZQ7); experiment: PD-1/PD-L1 NFAT reporter co-culture assay; type: cell-based; settings: Jurkat PD-1 NFAT-luciferase cells co-cultured with aAPC-PD-L1 CHO cells, 6 hrs at 37° C.; read-out: EC50 NFAT Luciferase
T1 construct: expressed in transfected cells; host or cells: CHO cells (aAPC-PD-L1) co-cultured with Jurkat cells overexpressing PD-1 and an NFAT-luciferase reporter
T1 sequence (Q9NZQ7 19-290): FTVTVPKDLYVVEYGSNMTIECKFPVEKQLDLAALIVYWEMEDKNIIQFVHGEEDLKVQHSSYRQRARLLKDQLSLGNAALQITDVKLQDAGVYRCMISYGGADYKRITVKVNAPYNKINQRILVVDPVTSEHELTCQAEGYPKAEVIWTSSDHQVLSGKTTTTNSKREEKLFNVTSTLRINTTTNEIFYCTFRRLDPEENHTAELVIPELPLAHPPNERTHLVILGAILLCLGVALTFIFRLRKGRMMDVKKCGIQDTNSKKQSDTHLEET
In short: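 Jurkat cells overexpressing PD-1 with NFAT-luciferase mixed with compounds and plated onto CHO aAPCs expressing anti-CD3 and PD-L1, RPMI with 2% FBS. Co-culture 6 h at 37 °C; luminescence read with ONE-Glo. EC50 from four-parameter fit.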

[1] = molecular target: T2, interaction between the recombinant extracellular domain (ECD) of PD-1 and native cell-bound PD-L1 (Homo sapiens, UniProt Q9NZQ7); experiment: CHO/PD-L1 cell capture assay; type: cell-based; settings: CHO cells overexpressing PD-L1, pre-incubated 1 hr with compound, captured on biotinylated Fc-PD-1 coated plates, 75 min at room temperature
T2 construct: expressed in transfected cells
T2 sequence (Q9NZQ7 19-290): as above
Protocol: EC50-CHO/PD-L1-Capture Assay:
Compounds were tested in a cell capture assay to determine if they can specifically block the interaction between the recombinant extracellular domain (ECD) of PD-1 and native cell-bound PD-L1. Binding affinity of stable CHO cells overexpressing PD-L1 with its cognate recombinant ligand coated on plates was measured by counting the number of ‘captured’ cells. High-capacity streptavidin- coated plates were incubated with biotylated-Fc-PD-1 for 2 hours in PBS. Unbound ligand was washed out. CHO-PD-L1 cells (resuspended in PBS pH 7.4, 0.5 mM EDTA, and 2% bovine serum albumin) were pre-incubated for 1 hr with compound, dispensed into each PD-1 ECD coated well and then incubated for 75 min at room temperature. To stop the capture assay, a fixative/staining solution (final concentrations are 1.3% glutaraldehyde and 1.67 μM Draq5) was gently added to the cells and incubated for 2 hrs at room temperature. Unbound cells were then washed out and ‘captured’ cells were enumerated using a high-content microscopy system. EC50 values were calculated from the fit of the dose-response curves to a four-parameter equation. Representative data are shown below in Table 2.

PD-1/PD-L1 = PD-1/PD-L1 (Homo sapiens, UniProt Q9NZQ7); experiment: PD-1/PD-L1 biochemical protein-protein interaction assay (ALPHA); type: binding; settings: 0.3 nM His tagged PD-L1, 2.5 nM biotinylated Fc-PD-1, 60 minutes at 25° C., read-out: IC50 PD-L1-PD-1 Alpha IC50-mono PD-L1-fcP-D1
Sequence of PD-1/PD-L1 (Q9NZQ7 19-238 limits assumed): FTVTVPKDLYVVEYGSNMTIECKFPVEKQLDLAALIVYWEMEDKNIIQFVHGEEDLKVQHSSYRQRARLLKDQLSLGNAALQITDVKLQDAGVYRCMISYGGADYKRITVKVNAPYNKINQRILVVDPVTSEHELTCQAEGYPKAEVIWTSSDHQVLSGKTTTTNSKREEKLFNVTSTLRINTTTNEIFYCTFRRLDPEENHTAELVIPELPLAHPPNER
In short: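 Compound blockade of the PD-1/PD-L1 extracellular-domain interaction measured as reduced ALPHA signal after 60 min at 25 °C, pH 7.4 Hepes buffer with EDTA, Tween 20 and BSA. Final proteins: His-tagged PD-L1 0.3 nM, biotinylated Fc-PD-1 2.5 nM; four-parameter curve fit gives IC50.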

Row | Compound | EC50 (PD-1/PD-L1 interaction) [nM] | EC50 [1] [nM] | IC50 (PD-1/PD-L1) [nM]
1 | COc1nc(O[C@H]2CCc3c(-c4cccc5c4CC[C@@H]5Oc4nc(OC)c(CN[C@@](C)(CO)C(=O)O)cc4Br)cccc32)c(Br)cc1CN[C@@](C)(CO)C(=O)O [Example 5, (2S,2′S)-2,2′-((((((1S,1′S)-2,2′,3,3′-tetrahydro-1H,1′H-[4,4′-biindene]-1,1′-diyl)bis(oxy))bis(5-bromo-2-methoxypyridine-6,3-diyl))bis(methylene))bis(azanediyl))bis(3-hydroxy-2-methylpropanoic acid)] | 29 | 38.1 | 0.1
2 | COc1nc(OC2CCc3c(-c4cccc5c4CCC5Oc4nc(OC)c(CNC[C@@H](O)CC(=O)O)cc4Cl)cccc32)c(Cl)cc1CNC[C@@H](O)CC(=O)O (stereo partly drawn) [Example 9, (3S,3′S)-4,4′-(((((2,2′,3,3′-tetrahydro-1H,1′H-[4,4′-biindene]-1,1′-diyl)bis(oxy))bis(5-chloro-2-methoxypyridine-6,3-diyl))bis(methylene))bis(azanediyl))bis(3-hydroxybutanoic acid)] | 340 | 102 | 0.5
3 | COc1nc(O[C@H]2CCc3c(-c4cccc5c4CC[C@@H]5Oc4ccc(CNC[C@@H](O)CC(=O)O)c(OC)n4)cccc32)ccc1CNC[C@@H](O)CC(=O)O [Example 11, (3S,3′S)-4,4′-((((((1S,1′S)-2,2′,3,3′-tetrahydro-1H,1′H-[4,4′-biindene]-1,1′-diyl)bis(oxy))bis(2-methoxypyridine-6,3-diyl))bis(methylene))bis(azanediyl))bis(3-hydroxybutanoic acid)] | 1100 | 170 | 0.4
4 | COc1nc(OC2CCc3c(-c4cccc5c4CCC5Oc4ccc(CNC[C@@H](O)CC(=O)O)c(OC)n4)cccc32)ccc1CNC[C@@H](O)CC(=O)O (stereo partly drawn) [Example 13, (3S,3′S)-4,4′-(((((2,2′,3,3′-tetrahydro-1H,1′H-[4,4′-biindene]-1,1′-diyl)bis(oxy))bis(2-methoxypyridine-6,3-diyl))bis(methylene))bis(azanediyl))bis(3-hydroxybutanoic acid)] | 4800 | 457 | 2.2
5 | Cc1c(COc2cc(OCc3cncc(C#N)c3)c(CNCCO)cc2Cl)cccc1-c1cccc(COc2cc(OCc3cncc(C#N)c3)c(CNCCO)cc2Cl)c1 [Example 20, 5,5′-((((((2-methyl-[1,1′-biphenyl]-3,3′-diyl)bis(methylene))bis(oxy))bis(4-chloro-6-(((2-hydroxyethyl)amino)methyl)-3,1-phenylene))bis(oxy))bis(methylene))dinicotinonitrile] | 1200 | 752 | 12.6
6 | COc1nc(OCc2cccc(-c3cccc(COc4nc(OC)c(CNC[C@@H](O)CC(=O)O)cc4Cl)c3C)c2C)c(Cl)cc1CNC[C@@H](O)CC(=O)O [Example 29, (3S,3′S)-4,4′-((((((2,2′-dimethyl-[1,1′-biphenyl]-3,3′-diyl)bis(methylene))bis(oxy))bis(5-chloro-2-methoxypyridine-6,3-diyl))bis(methylene))bis(azanediyl))bis(3-hydroxybutanoic acid)] | 244 | 218 | 0.8
7 | Cc1c(COc2nc(OCc3cncc(C#N)c3)c(CNC[C@H](O)CC(=O)O)cc2Cl)cccc1-c1cccc(COc2nc(OCc3cncc(C#N)c3)c(CNC[C@H](O)CC(=O)O)cc2Cl)c1C [Example 32, (3R,3′R)-4,4′-((((((2,2′-dimethyl-[1,1′-biphenyl]-3,3′-diyl)bis(methylene))bis(oxy))bis(5-chloro-2-((5-cyanopyridin-3-yl)methoxy)pyridine-6,3-diyl))bis(methylene))bis(azanediyl))bis(3-hydroxybutanoic acid)] | 127 | 42.1 | 0.3
8 | Cc1c(COc2nc(OCc3cncc(C#N)c3)c(CNC[C@@H](O)CC(=O)O)cc2Cl)cccc1-c1cccc(COc2nc(OCc3cncc(C#N)c3)c(CNC[C@@H](O)CC(=O)O)cc2Cl)c1C [Example 34, (3S,3′S)-4,4′-((((((2,2′-dimethyl-[1,1′-biphenyl]-3,3′-diyl)bis(methylene))bis(oxy))bis(5-chloro-2-((5-cyanopyridin-3-yl)methoxy)pyridine-6,3-diyl))bis(methylene))bis(azanediyl))bis(3-hydroxybutanoic acid)] | 195 | 321 | 0.4
9 | Cc1c(COc2nc(OCc3cncc(C#N)c3)c(CNCCO)cc2Cl)cccc1-c1cccc(COc2nc(OCc3cncc(C#N)c3)c(CNCCO)cc2Cl)c1C [Example 35, 5,5′-((((((2,2′-dimethyl-[1,1′-biphenyl]-3,3′-diyl)bis(methylene))bis(oxy))bis(5-chloro-3-(((2-hydroxyethyl)amino)methyl)pyridine-6,2-diyl))bis(oxy))bis(methylene))dinicotinonitrile] | 296 | 264 | 15.6
10 | CCCc1cc(CNCCO)c(OCc2cncc(C#N)c2)cc1OCc1cccc(-c2cccc(COc3cc(OCc4cncc(C#N)c4)c(CNCCO)cc3CCC)c2C)c1C [Example 39, 5,5′-((((((2,2′-dimethyl-[1,1′-biphenyl]-3,3′-diyl)bis(methylene))bis(oxy))bis(6-(((2-hydroxyethyl)amino)methyl)-4-propyl-3,1-phenylene))bis(oxy))bis(methylene))dinicotinonitrile] | ≥ 50000 | 267 | 167
11 | Cc1c(COc2nc(OCc3cncc(S(C)(=O)=O)c3)c(CN[C@@](C)(CO)C(=O)O)cc2Br)cccc1-c1cccc(COc2nc(OCc3cncc(S(C)(=O)=O)c3)c(CN[C@@](C)(CO)C(=O)O)cc2Br)c1C [Example 41, (2S,2′S)-2,2′-((((((2,2′-dimethyl-[1,1′-biphenyl]-3,3′-diyl)bis(methylene))bis(oxy))bis(5-bromo-2-((5-(methylsulfonyl)pyridin-3-yl)methoxy)pyridine-6,3-diyl))bis(methylene))bis(azanediyl))bis(3-hydroxy-2-methylpropanoic acid)] | 188 | 248 | 0.2
12 | Cc1c(COc2nc(OCc3cncc(S(C)(=O)=O)c3)c(CNC[C@@H](O)CC(=O)O)cc2Br)cccc1-c1cccc(COc2nc(OCc3cncc(S(C)(=O)=O)c3)c(CNC[C@@H](O)CC(=O)O)cc2Br)c1C [Example 42, (3S,3′S)-4,4′-((((((2,2′-dimethyl-[1,1′-biphenyl]-3,3′-diyl)bis(methylene))bis(oxy))bis(5-bromo-2-((5-(methylsulfonyl)pyridin-3-yl)methoxy)pyridine-6,3 diyl))bis(methylene))bis(azanediyl))bis(3-hydroxybutanoic acid)] | 123 | 149 | 0.3
13 | COc1nc(OCc2cccc(-c3cccc(COc4nc(OC)c(CNC5(C#N)CCC5)cc4Cl)c3C)c2C)c(Cl)cc1CNC1(C#N)CCC1 [Example 231, 1,1′-((((((2,2′-dimethyl-[1,1′-biphenyl]-3,3′-diyl)bis(methylene))bis(oxy))bis(5-chloro-2-methoxypyridine-6,3-diyl))bis(methylene))bis(azanediyl))bis(cyclobutane-1-carbonitrile)] | 962 | 277 | –
14 | COc1nc(OCc2cccc(-c3cccc(COc4nc(OC)c(CN5CCC[C@@H]5C(=O)O)cc4Cl)c3C)c2C)c(Cl)cc1CN1CCC[C@@H]1C(=O)O [Example 234, (2′R)-(((((2,2′-dimethyl-[1,1′-biphenyl]-3,3′-diyl)bis(methylene))bis(oxy))bis(5-chloro-2-methoxypyridine-6,3-diyl))bis(methylene))di-D-proline] | 444 | 132 | –
15 | Cc1c(COc2cc(OCc3cncc(C#N)c3)c(CNC[C@@H](O)CC(=O)O)cc2Cl)cccc1-c1cccc(-c2ccc(OCCNC[C@@H](O)CC(=O)O)c(Cl)c2)c1C [Example 288, (S)-4-((4-((4″-(2-(((S)-3-carboxy-2-hydroxypropyl)amino)ethoxy)-3″-chloro-2,2′-dimethyl-[1,1′:3′,1″-terphenyl]-3-yl)methoxy)-5-chloro-2-((5-cyanopyridin-3-yl)methoxy)benzyl)amino)-3-hydroxybutanoic acid] | 57 | 10.3 | –
